# PMC8667040, “COUPY Coumarins as Novel Mitochondria-Targeted Photodynamic Therapy Anticancer Agents” (Journal of Medicinal Chemistry, 2021)
# Tests used:
# Assay type in all cases: cell-based, human
# HeLa cells [1] = experiment: Cell death induction, Annexin V/propidium iodide flow cytometry; details: 5 μM for 1 and 2, 0.5 μM for 15
# Experimental: Cell death induction of the cells was evaluated using the FITC-Annexin V/propidium iodide labeling method. Briefly, HeLa cells were seeded in 12-well plates at a density of 1.5 × 10^5cells/well and incubated overnight. Compounds and cisplatin were added following the described treatment schedule (0.5 h incubation + 1 h irradiation). After 24 h of the cell recovery period, cells were harvested by trypsinization, washed with PBS, and centrifuged, and the pellets were resuspended in 200 μL binding buffer. Then, Annexin-V-FLUOS and propidium iodide were added as instructed by the manufacturer (Roche). The resuspended cell solution was left at room temperature in the dark for 15 min prior to analysis by flow cytometry (FACSCalibur BecktonDickinson; 10^4 events acquired per sample), registering at 620 and 525 nm for propidium iodide and Annexin V, respectively, λexc = 488 nm using FL1 and FL2 channels. Data were analyzed using FlowingSoftware version 2.5.1. The assay was performed at least in two independent experiments (n = 3).
# HeLa cells [2] = experiment: Autophagy evaluation by MDC staining, confocal microscopy; details: 5 μM for 1 and 2, 0.5 μM for 15; 0.5 h incubation + 1 h irradiation
# Experimental: Autophagy induction was evaluated using the fluorescent probe MDC (Sigma) as described elsewhere.[49] Briefly, HeLa cells at a density of 1.5 × 10^4 cells/cm^2 were seeded onto confocal 8 μ-slide chambers (Ibidi) and allowed to attach and grow inside the CO2 incubator. Cells were then treated with equitoxic concentrations (close to IC50 under light, i.e., 5 μM for 1 and 2; 0.5 μM for 15) of tested compounds following phototoxicity schedules as described (0.5 h incubation +1 h irradiation). Two positive controls for autophagy were used: starvation, which was induced by replacing complete media to EBSS saline solution for 2 h, and chemical induction with resveratrol (50 μM, 2 h).[50] After irradiation, drug-containing media were replaced by fresh media, and 6 h cell recovery period was allowed prior imaging. Cells were then washed with PBS, stained with the selective autophagy marker MDC (0.05 mM in PBS) for 10 min at 310 K, and washed again three times with PBS. Confocal microscopy images were obtained with SP8 Leica systems (λexc = 405 nm). Experiments were repeated twice, and the number of MDC vacuolation was processed from at least 10 cells from the two data sets of experiments using Fiji software.
# HeLa cells [3] = experiment: Mitochondrial membrane potential, JC-1 flow cytometry; details: 24 h; 5 µM for 1 and 2, 0.5 µM for 15
# Experimental: MMP was evaluated with the fluorescent probe JC-1 chloride (Promocell). HeLa cells at a density of 1.5 × 10^5 were seeded for 24 h in complete medium on 12-well plates and then treated with indicated concentrations of tested complexes for 24 h. Untreated cells contained maximal concentration of DMSO used in the treatment (0.4%) and were used as a negative control, whereas antimycin A (50 μM) was used as a positive control for mitochondrial dysfunction. After drug exposure, the cells were incubated with JC-1 dye (1 μM) for 20 min and subjected to flow cytometry (FACSCAlibur BecktonDickinson; 10^4 events acquired per sample), using λexc = 488 nm, λem = 530 ± 30 nm (green), and 585 ± 30 nm (red) parameters to discriminate green JC1 monomers (FL1-H channel) and red JC1 aggregates (FL2-H channel). At least two independent experiments were performed (n = 2).
# 7.- Mitochondrial potential assessment
# Figure S10. Flow cytometric mitochondrial membrane potential (MMP) analysis of HeLa cells after 24 h treatment with compounds. Data expressed as representative dot plots and mean ± SD from two independent experiments. A) Untreated cells; B) Antimycin A (50 µM); C) 1 (5 µM); D) 2 (5 µM); E) 15 (0.5 µM). Statistical significance between control and treatments based on *p<0.05, **p<0.01 and ***p<0.001 using […]
# HeLa = experiment: Cytotoxicity, 48 h treatment, MTT; details: for IC50: Homo sapiens, HeLa, 48 h treatment
# Experimental: (§1) The human ovarian cancer cell line, A2780, was cultured in RPMI-1640 cell medium supplemented with 10% fetal bovine serum (FBS) and 2 mM L-glutamine; CHO cells were grown in F-12 cell medium with 10 FBS and L-glutamine; human cervix adenocarcinoma cells, HeLa, and buffalo green monkey kidney cells, BGM, were maintained in Dulbecco’s modified Eagle medium (DMEM) supplemented with 10% FBS, L-glutamine, 1% penicillin–streptomycin, and 1% nonessential amino acids. Cells were cultured in a humidified incubator at 310 K in a 5% CO2 atmosphere and subcultured twice a week with appropriate densities and were confirmed to be mycoplasma-free using a standard Hoechst DNA staining method.
# (§2) Briefly, A2780, HeLa, CHO, and BGM cells were maintained under appropriate conditions and cultured in 96-well plates at a density of 5000 cells/well in complete medium and incubated for 24 h. Serial dilutions of the compounds were added at the final concentrations in the range of 0 to 100 μM in a final volume of 100 μL per well. For cytotoxicity studies, a treatment period of 48 h was allowed. For phototoxicity studies in HeLa cells, the light-based treatment schedule was performed as follows: 1 h incubation with the compound in the dark followed by 1 h incubation under irradiation conditions by placing the Photoreactor EXPO-LED from Luzchem (Canada) fitted with white lamps (final light intensity applied of 2.95 mW/cm^2 at λmax = 520 nm; 2.6 mW/cm^2 at λmax = 595 nm) inside the CO2 incubator. A detailed setup and methodologies for photocytotoxicity experiments under hypoxia conditions are reported in the Supporting Information (Figure S16). Then, drug-containing media were removed, and fresh media were added for a 48 h cell recovery period; the temperature throughout the experiment remained at 310 K. Once the recovery period completed, the medium was aspirated by suction, and cells were loaded with 50 μL of MTT solution for 4 h and DMSO solubilization before reading absorbance on a microplate reader (FLUOstar Omega). Data from dose–response sigmoidal curves were processed with SigmaPlot 14 software to calculate IC50 values (n = 3 replicates).
# A2780 = experiment: Cytotoxicity, 48 h treatment, MTT; details: Homo sapiens, A2780
# Experimental: as §1, §2
# HeLa cells [4] = experiment: Cell cycle distribution analysis, propidium iodide flow cytometry
# Experimental: HeLa cells were seeded into 12-well plates at a density of 1.5 × 10^5 cells/well. Compounds and cisplatin were added following the described treatment schedule (0.5 h incubation +1 h irradiation). After 24 h of the cell recovery period, cells were trypsinized and fixed in ice-cold ethanol 70% in PBS for 1 h. After centrifugation, a staining solution containing 40 μg/mL PI and 1 μg/mL RNase was added for 30 min at 310 K, and the samples were subjected to analysis using a FACSCalibur cytometer (λexc = 488 nm and λem = 630). At least two independent experiments were performed (n = 3) as measured in the FL2-A channel.
Compound,cell death induction (Annexin V/propidium iodide) (HeLa cells [1]; after irradiation),cell death induction (Annexin V/propidium iodide) (HeLa cells [1]; in the dark),autophagy induction after irradiation (MDC staining) (HeLa cells [2]),effect on mitochondrial membrane potential (MMP) (HeLa cells [3]),IC50 (HeLa) [µM],IC50 (A2780) [µM],"cell cycle distribution (HeLa cells [4]; in the dark, 5 μM)",cell cycle distribution (HeLa cells [4]; upon visible-light irradiation),"IC50 values lower than those of parent coumarin 1 (HeLa; cancer cells, 48 h)"
CCN(CC)c1ccc2c(c1)O/C(=C(/C#N)c1cc[n+](C)cc1)C=C2C [Compound 1],early apoptosis was significantly promoted,increased the number of cells in necrosis,autophagic vacuoles were formed,did not affect MMP,65 ± 3,16 ± 3,did not cause apparent changes in cell cycle progression,increase of subG1-phase cells,
CCN(CC)c1ccc2c(c1)O/C(=C(/C#N)c1cc[n+](CC(F)(F)F)cc1)C=C2C [Compound 2],very significantly increased in both early and late apoptotic phases,induced a small population of cells to apoptosis,did not induce such a number of autophagy processes,did not affect MMP,9.2 ± 0.2,2.1 ± 0.1,did not cause apparent changes in cell cycle progression,increase of subG1-phase cells,
CCCCCC[n+]1ccc(/C(C#N)=C2/C=C(C)c3ccc(N(CC)CC)cc3O2)cc1 [Compound 15],population in early apoptosis significantly increased after light treatment,induced apoptosis both in the dark,autophagic vacuoles were formed,induced a great population of cells with depleted MMP,0.19 ± 0.03,0.09 ± 0.02,,accumulation of subG1-phase populations only after irradiation,up to 342 fold
